Assay results from ChEMBL document CHEMBL1141935, “Aminopiperidine indazoles as orally efficacious melanin concentrating hormone receptor-1 antagonists” (Bioorg Med Chem Lett, 2005).

Columns and labels:
[1] = target: T1, Melanin-concentrating hormone receptor 1 (Homo sapiens, UniProt Q99705); assay: Binding affinity to human MCHr1 from neuronal IMR32 cells; assay type: cell-based, IMR-32
[2] = target: T1, Melanin-concentrating hormone receptor 1; assay: Functional antagonism of MCH-mediated calcium release by FLIPR using human MCHr1 from neuronal IMR32 cells; assay type: cell-based, IMR-32
[3] = Cmax in DIO mice plasma at 10 mg/kg, po; assay type: ADME, organism-based; parameters: dose 10 mg/kg, route oral; conditions: mouse
[4] = AUC in DIO mice brain at 10 mg/kg, po; assay type: ADME, organism-based; parameters: dose 10 mg/kg, route oral; conditions: mouse
[5] = Cmax in DIO mice brain at 10 mg/kg, po; assay type: ADME, organism-based; parameters: dose 10 mg/kg, route oral; conditions: mouse
[6] = Half life in DIO mice plasma at 10 mg/kg, po; assay type: ADME, organism-based; parameters: dose 10 mg/kg, route oral; conditions: mouse
[7] = Half life in DIO mice brain at 10 mg/kg, po; assay type: ADME, organism-based; parameters: dose 10 mg/kg, route oral; conditions: mouse
[8] = AUC in DIO mice plasma at 10 mg/kg, po; assay type: ADME, organism-based; parameters: dose 10 mg/kg, route oral; conditions: mouse

T1 sequence (Q99705 whole entry): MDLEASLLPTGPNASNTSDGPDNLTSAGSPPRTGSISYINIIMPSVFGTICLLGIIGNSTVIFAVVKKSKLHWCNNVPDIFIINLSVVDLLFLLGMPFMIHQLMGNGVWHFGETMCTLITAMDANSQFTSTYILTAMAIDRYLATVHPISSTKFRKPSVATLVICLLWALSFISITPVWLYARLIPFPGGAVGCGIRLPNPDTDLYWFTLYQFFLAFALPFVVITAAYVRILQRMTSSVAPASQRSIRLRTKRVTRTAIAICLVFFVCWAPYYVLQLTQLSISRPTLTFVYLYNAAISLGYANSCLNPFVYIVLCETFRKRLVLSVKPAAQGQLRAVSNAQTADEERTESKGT

Structure (SMILES) | IC50 [1] | IC50 [2] | Cmax [3] | AUC [4] | Cmax [5] | half-life [6] | half-life [7] | AUC [8]
Cc1ccc2[nH]nc(NC3CCN(Cc4ccc5c(c4)OCO5)CC3)c2c1 | 0.11 µM | 1.06 µM | – | – | – | – | – | –
O=[N+]([O-])c1ccc2[nH]nc(NC3CCN(Cc4ccc5c(c4)OCO5)CC3)c2c1 | 0.006 µM | 0.07 µM | 1520 ng/mL | 22800 ng·h/mL | 3080 ng/mL | 3.3 h | 4 h | 14400 ng·h/mL
N#Cc1ccc2[nH]nc(NC3CCN(Cc4ccc5c(c4)OCO5)CC3)c2c1 | 0.22 µM | 3.4 µM | – | – | – | – | – | –
Clc1ccc2c(c1)c(NC1CCN(Cc3ccc4c(c3)OCO4)CC1)nn2Cc1ccccn1 | 0.009 µM | 0.55 µM | – | – | – | – | – | –
Clc1ccc2c(c1)c(NC1CCN(Cc3ccc4c(c3)OCO4)CC1)nn2Cc1cccnc1 | 0.02 µM | 0.29 µM | 1690 ng/mL | 5340 ng·h/mL | 758 ng/mL | 4.7 h | 6 h | 11900 ng·h/mL
Clc1ccc2[nH]nc(NC3CCN(Cc4ccc5c(c4)OCCO5)CC3)c2c1 | 0.07 µM | 1.89 µM | – | – | – | – | – | –
COc1cccc2[nH]nc(NC3CCN(Cc4ccc5c(c4)OCO5)CC3)c12 | 0.33 µM | > 10 µM | – | – | – | – | – | –
O=C(c1cscn1)n1nc(NC2CCN(Cc3ccc4c(c3)OCO4)CC2)c2cc(Cl)ccc21 | 0.02 µM | 2.54 µM | 271 ng/mL | – | – | 1 h | – | 400 ng·h/mL
O=C(C1CC1)n1nc(NC2CCN(Cc3ccc4c(c3)OCO4)CC2)c2cc(Cl)ccc21 | 0.04 µM | > 10 µM | – | – | – | – | – | –
Clc1ccc2c(c1)c(NC1CCN(Cc3ccc4c(c3)OCO4)CC1)nn2Cc1ccncc1 | 0.007 µM | 0.56 µM | – | – | – | – | – | –
O=C(CN1CCOCC1)n1nc(NC2CCN(Cc3ccc4c(c3)OCO4)CC2)c2cc(Cl)ccc21 | 0.02 µM | 1.14 µM | – | – | – | – | – | –
O=C(c1cccnc1)n1nc(NC2CCN(Cc3ccc4c(c3)OCO4)CC2)c2cc(Cl)ccc21 | 0.02 µM | 0.93 µM | 63 ng/mL | – | – | 2.3 h | – | 164 ng·h/mL
Clc1ccc2c(c1)c(NC1CCN(Cc3ccc4c(c3)OCO4)CC1)nn2-c1ccccc1 | 0.05 µM | > 10 µM | – | – | – | – | – | –
Clc1ccc2c(c1)c(NC1CCN(Cc3ccc4c(c3)OCO4)CC1)nn2Cc1ccccc1 | 0.04 µM | 5.23 µM | – | – | – | – | – | –
Clc1ccc2c(c1)c(NC1CCN(Cc3ccc4ccccc4c3)CC1)nn2Cc1ccccn1 | 0.02 µM | 0.64 µM | – | – | – | – | – | –
O=[N+]([O-])c1ccc2[nH]nc(NC3CCN(Cc4ccc5c(c4)OCCO5)CC3)c2c1 | 0.03 µM | 0.52 µM | – | – | – | – | – | –
FC(F)(F)c1ccc2[nH]nc(NC3CCN(Cc4ccc5c(c4)OCO5)CC3)c2c1 | > 2 µM | > 10 µM | – | – | – | – | – | –
O=[N+]([O-])c1ccc2c(c1)c(NC1CCN(Cc3ccc4c(c3)OCO4)CC1)nn2Cc1ccccc1 | 0.005 µM | 0.35 µM | – | – | – | – | – | –

Continued, values first:

IC50 [1] | IC50 [2] | Cmax [3] | AUC [4] | Cmax [5] | half-life [6] | half-life [7] | AUC [8] | Structure (SMILES)
0.44 µM | > 10 µM | – | – | – | – | – | – | c1ccc2c(NC3CCN(Cc4ccc5c(c4)OCO5)CC3)[nH]nc2c1
0.24 µM | 5.2 µM | – | – | – | – | – | – | COc1ccc(CN2CCC(Nc3[nH]nc4ccc(Cl)cc34)CC2)c(F)c1
0.15 µM | 4.5 µM | – | – | – | – | – | – | COc1cccc(CN2CCC(Nc3[nH]nc4ccc(Cl)cc34)CC2)c1
0.1 µM | 1.38 µM | – | – | – | – | – | – | Cc1ccc(CN2CCC(Nc3[nH]nc4ccc(Cl)cc34)CC2)cc1C
0.05 µM | 4.91 µM | – | – | – | – | – | – | Clc1ccc2[nH]nc(NC3CCN(Cc4ccc5nsnc5c4)CC3)c2c1
0.85 µM | > 10 µM | – | – | – | – | – | – | Clc1ccc2[nH]nc(NC3CCN(Cc4ccccc4)CC3)c2c1
0.05 µM | 0.38 µM | – | – | – | – | – | – | COc1ccc2[nH]nc(NC3CCN(Cc4ccc5c[nH]nc5c4)CC3)c2c1
0.03 µM | 0.19 µM | – | – | – | – | – | – | COc1ccc2c(c1)c(NC1CCN(Cc3ccc4c(c3)OCO4)CC1)nn2C
0.2 µM | 6.2 µM | – | – | – | – | – | – | Clc1ccc(CN2CCC(Nc3[nH]nc4ccc(Cl)cc34)CC2)cc1
0.008 µM | 0.06 µM | 1410 ng/mL | 28500 ng·h/mL | 6040 ng/mL | 3.9 h | 4.9 h | 7630 ng·h/mL | COc1ccc2[nH]nc(NC3CCN(Cc4ccc5c(c4)OCO5)CC3)c2c1
0.04 µM | 1.82 µM | – | – | – | – | – | – | Clc1ccc2[nH]nc(NC3CCN(Cc4ccc5ccccc5c4)CC3)c2c1
0.02 µM | 0.26 µM | 1880 ng/mL | 59100 ng·h/mL | 12100 ng/mL | 3.1 h | 2.9 h | 8760 ng·h/mL | Clc1ccc2[nH]nc(NC3CCN(Cc4ccc5c(c4)OCO5)CC3)c2c1
